Measured values taken from article PMC7293037, “Fuse to defuse: a self-limiting ribonuclease-ring nuclease fusion for type III CRISPR defence” (Nucleic Acids Research, 2020).
Where two headings read alike, the source gives them in different places.

How the values were obtained:
Csx1-Crn2 [1] = target: T1, Csx1-Crn2; experiment: EMSA with radiolabelled cA4; format: binding, Marinitoga piezophila; conditions: pH 7.5, 2 mM MgCl2, 25 °C; Crn2 ring nuclease site (CARF site also present); labelled compound; read-out: apparent KD
T1 construct: full length, 563 aa natural fusion; synthetic gene codon-optimised, expressed in E. coli C43 (DE3); N-terminal His tag removed by TEV; V177L in the cloned gene; dimer

Csx1-Crn2 [2] = target: T1, Csx1-Crn2; experiment: EMSA with radiolabelled cA4; format: binding, Marinitoga piezophila; conditions: pH 7.5, 2 mM MgCl2, 25 °C; Crn2 ring nuclease site (CARF site also present); labelled compound; no obvious gel shift, value judged from cA4 cleavage at high protein concentration; discussion gives > 1; read-out: apparent KD

## Nc1ncnc2c1ncn2[C@@H]1O[C@@H]2COP(=O)(O)O[C@H]3[C@@H](O)[C@H](n4cnc5c(N)ncnc54)O[C@@H]3COP(=O)(O)O[C@H]3[C@@H](O)[C@H](n4cnc5c(N)ncnc54)O[C@@H]3COP(=O)(O)O[C@H]3[C@@H](O)[C@H](n4cnc5c(N)ncnc54)O[C@@H]3COP(=O)(O)O[C@H]2[C@H]1O [cA4]
Csx1-Crn2 [1]
  Kd: ~20 nM
Csx1-Crn2 [2]
  Kd: ~1000 nM
